# PubChem BioAssay AID248 (DTP/NCI, 2004)
# Several values for one entry are separate records, joined by “and”; a condition that tells them apart may be missing. Equal entries are not always repeated. Inconclusive results and toxic doses are left out.
# Tested on: L1210 leukemia ip in BDF1 mice, survival T/C
# Experiment: NCI In Vivo Anticancer Drug Screen. Data for tumor model L1210 Leukemia (intraperitoneal) in B6D2F1 (BDF1) mice
# Settings: endpoint: mean survival time, higher = longer survival
# In short: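 Survival endpoint. Drug-treated group vs vehicle group, expressed as T divided by C. Tumor passaged by transplantation.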
# [1] = dose: 100.0 mg/kg/injection, schedule: Q04DX002 (ip), vehicle: saline
# [2] = dose: 200.0 mg/kg/injection, schedule: Q04DX002 (ip), vehicle: saline
# [3] = dose: 400.0 mg/kg/injection, schedule: Q04DX002 (ip), vehicle: saline
# [4] = dose: 100.0 mg/kg/injection, schedule: Q01DX001 (ip), vehicle: other
# [5] = dose: 200.0 mg/kg/injection, schedule: Q01DX001 (ip), vehicle: other
# [6] = dose: 400.0 mg/kg/injection, schedule: Q01DX001 (ip), vehicle: other
# [7] = dose: 100.0 mg/kg/injection, schedule: Q01DX001 (ip), vehicle: saline
# [8] = dose: 100.0 mg/kg/injection, schedule: Q01DX009 (ip), vehicle: saline
# [9] = dose: 100.0 mg/kg/injection, schedule: Q04DX003 (ip), vehicle: saline
# [10] = dose: 200.0 mg/kg/injection, schedule: Q01DX001 (ip), vehicle: saline
# [11] = dose: 400.0 mg/kg/injection, schedule: Q01DX001 (ip), vehicle: saline
# [12] = dose: 100.0 mg/kg/injection, schedule: Q04DX003 (ip), vehicle: Klucel (hydroxypropylcellulose) (HPC)
# [13] = dose: 200.0 mg/kg/injection, schedule: Q04DX003 (ip), vehicle: Klucel (hydroxypropylcellulose) (HPC)
# [14] = dose: 400.0 mg/kg/injection, schedule: Q04DX003 (ip), vehicle: Klucel (hydroxypropylcellulose) (HPC)
# [15] = dose: 100.0 mg/kg/injection, schedule: Q01DX009 (ip), vehicle: saline with Tween-80
# [16] = dose: 200.0 mg/kg/injection, schedule: Q01DX009 (ip), vehicle: saline with Tween-80
# [17] = dose: 400.0 mg/kg/injection, schedule: Q01DX009 (ip), vehicle: saline with Tween-80
structure (smiles),measurement,setting,value
NC(=O)OCCCl,T/C,[1],98 % of control
same,T/C,[2],109 % of control
same,T/C,[3],102 % of control
CCCCC(O)(C#CC(O)(CC)CCCC)CC (centres undefined),T/C,[4],103 % of control
same,T/C,[5],105 % of control
same,T/C,[6],102 % of control
CCCN,T/C,[7],107 % of control
same,T/C,[8],106 % of control and 107 % of control
same,T/C,[1],103 % of control and 108 % of control
same,T/C,[9],103 % of control
same,T/C,[10],100 % of control
same,T/C,"dose: 200.0 mg/kg/injection, schedule: Q01DX009 (ip), vehicle: saline",93 % of control and 109 % of control
same,T/C,[2],99 % of control and 106 % of control
same,T/C,"dose: 200.0 mg/kg/injection, schedule: Q04DX003 (ip), vehicle: saline",96 % of control
same,T/C,[11],105 % of control
same,T/C,"dose: 400.0 mg/kg/injection, schedule: Q01DX009 (ip), vehicle: saline",111 % of control and 117 % of control
same,T/C,[3],105 % of control and 108 % of control
same,T/C,"dose: 400.0 mg/kg/injection, schedule: Q04DX003 (ip), vehicle: saline",96 % of control
O=C(Nc1ccccc1)NC(O)C(Cl)(Cl)Cl (centres undefined),T/C,[12],95 % of control
same,T/C,[13],95 % of control
same,T/C,[14],98 % of control
CS(=O)(=O)c1ccc(F)c([N+](=O)[O-])c1,T/C,"dose: 25.0 mg/kg/injection, schedule: Q04DX003 (ip), vehicle: Klucel (hydroxypropylcellulose) (HPC)",92 % of control
same,T/C,"dose: 50.0 mg/kg/injection, schedule: Q04DX003 (ip), vehicle: Klucel (hydroxypropylcellulose) (HPC)",92 % of control
same,T/C,[12],95 % of control
CC(=O)N1C(=O)NC(=O)C1(C)c1ccc(Cl)s1 (centres undefined),T/C,[15],96 % of control
same,T/C,"dose: 100.0 mg/kg/injection, schedule: Q04DX003 (ip), vehicle: saline with Tween-80",100 % of control
same,T/C,[16],103 % of control
same,T/C,"dose: 200.0 mg/kg/injection, schedule: Q04DX003 (ip), vehicle: saline with Tween-80",97 % of control
same,T/C,[17],91 % of control
same,T/C,"dose: 400.0 mg/kg/injection, schedule: Q04DX003 (ip), vehicle: saline with Tween-80",88 % of control
c1ccc(Sc2ccc3ccccc3c2)cc1,T/C,[15],103 % of control
same,T/C,[16],97 % of control
same,T/C,[17],93 % of control
S=c1[nH]c(=S)c2[nH]cnc(=S)c2[nH]1,T/C,"dose: 2.0 mg/kg/injection, schedule: Q01DX Z (ip), vehicle: carboxymethylcellulose (CMC)",103 % of control
same,T/C,"dose: 4.0 mg/kg/injection, schedule: Q01DX Z (ip), vehicle: carboxymethylcellulose (CMC)",91 % of control
same,T/C,"dose: 8.0 mg/kg/injection, schedule: Q01DX Z (ip), vehicle: carboxymethylcellulose (CMC)",89 % of control
same,T/C,"dose: 12.5 mg/kg/injection, schedule: Q01DX Z (ip), vehicle: carboxymethylcellulose (CMC)",91 % of control
same,T/C,"dose: 25.0 mg/kg/injection, schedule: Q01DX Z (ip), vehicle: carboxymethylcellulose (CMC)",96 % of control
CCN(CC)CC(=O)NCC(CCN(C)C)(c1ccc2ccccc2c1)C(C)C (centres undefined),T/C,"dose: 25.0 mg/kg/injection, schedule: Q04DX003 (ip), vehicle: saline",99 % of control
same,T/C,"dose: 50.0 mg/kg/injection, schedule: Q04DX002 (ip), vehicle: saline",97 % of control
same,T/C,"dose: 50.0 mg/kg/injection, schedule: Q04DX003 (ip), vehicle: saline",94 % of control
same,T/C,[8],98 % of control
same,T/C,[1],106 % of control
same,T/C,[9],97 % of control
same,T/C,[2],86 % of control
C=CCC1(Cc2ccsc2)C(=O)NC(=O)NC1=O,T/C,"dose: 100.0 mg/kg/injection, schedule: Q01DX001 (ip), vehicle: carboxymethylcellulose (CMC)",90 % of control
same,T/C,"dose: 200.0 mg/kg/injection, schedule: Q01DX001 (ip), vehicle: carboxymethylcellulose (CMC)",92 % of control
same,T/C,"dose: 400.0 mg/kg/injection, schedule: Q01DX001 (ip), vehicle: carboxymethylcellulose (CMC)",100 % of control
COc1cc2ccc3c(c2cc1OC)CN(C)CC3,T/C,"dose: 12.5 mg/kg/injection, schedule: Q01DX009 (ip), vehicle: saline",91 % of control
same,T/C,"dose: 25.0 mg/kg/injection, schedule: Q01DX009 (ip), vehicle: saline",97 % of control
same,T/C,"dose: 50.0 mg/kg/injection, schedule: Q01DX009 (ip), vehicle: saline",100 % of control
same,T/C,[9],103 % of control
COC(=O)CNC(=O)C(CSCc1ccccc1)NC(=O)OCc1ccccc1 (centres undefined),T/C,[12],94 % of control
same,T/C,[13],89 % of control
same,T/C,[14],99 % of control
O=C(O)C1C(Cl)C(Cl)C1C(=O)O (centres undefined),T/C,"dose: 75.0 mg/kg/injection, schedule: Q01DX001 (ip), vehicle: saline",104 % of control
same,T/C,"dose: 150.0 mg/kg/injection, schedule: Q01DX001 (ip), vehicle: saline",101 % of control
same,T/C,"dose: 300.0 mg/kg/injection, schedule: Q01DX001 (ip), vehicle: saline",96 % of control
CCN(CC)C(=S)[S][Sb]([S]C(=S)N(CC)CC)[c]1ccccc1,T/C,[4],112 % of control
same,T/C,[5],89 % of control
O=C1C2(Cl)C3(Cl)C4(OCCO4)C4(Cl)C2(Cl)C2(Cl)C1(Cl)C3(Cl)C42Cl (centres undefined),T/C,"dose: 50.0 mg/kg/injection, schedule: Q01DX001 (ip), vehicle: saline",100 % of control
same,T/C,[7],100 % of control
same,T/C,[10],105 % of control
same,T/C,[11],96 % of control
N#Cc1nc(C#N)c(C#N)nc1C#N,T/C,"dose: 6.25 mg/kg/injection, schedule: Q01DX009 (ip), vehicle: Klucel (hydroxypropylcellulose) (HPC)",105 % of control
same,T/C,"dose: 12.5 mg/kg/injection, schedule: Q01DX009 (ip), vehicle: Klucel (hydroxypropylcellulose) (HPC)",100 % of control
same,T/C,"dose: 25.0 mg/kg/injection, schedule: Q01DX009 (ip), vehicle: Klucel (hydroxypropylcellulose) (HPC)",94 % of control
same,T/C,"dose: 50.0 mg/kg/injection, schedule: Q01DX009 (ip), vehicle: Klucel (hydroxypropylcellulose) (HPC)",97 % of control
C1O[C@@H]1[C@@H]1CO1,T/C,"dose: 10.5 mg/kg/injection, schedule: Q01DX015 (ip), vehicle: saline",110 % of control
same,T/C,"dose: 18.0 mg/kg/injection, schedule: Q01DX015 (ip), vehicle: saline",110 % of control
same,T/C,"dose: 44.0 mg/kg/injection, schedule: Q01DX001 (ip), vehicle: saline",111 % of control and 116 % of control
same,T/C,"dose: 66.0 mg/kg/injection, schedule: Q01DX001 (ip), vehicle: saline",150 % of control
same,T/C,[7],173 % of control
same,T/C,"dose: 100.0 mg/kg/injection, schedule: Q01DX010 (ip), vehicle: water",167 % of control
same,T/C,"dose: 200.0 mg/kg/injection, schedule: Q01DX010 (ip), vehicle: water",186 % of control
same,T/C,"dose: 400.0 mg/kg/injection, schedule: Q01DX010 (ip), vehicle: water",189 % of control
same,T/C,"dose: 600.0 mg/kg/injection, schedule: Q01DX010 (ip), vehicle: water",157 % of control
CC1=NC(C)(C)CO1,T/C,[7],101 % of control
same,T/C,[10],97 % of control
same,T/C,[11],95 % of control
Clc1nc2ccccc2n2nnnc12,T/C,"dose: 15.0 mg/kg/injection, schedule: Q04DX003 (ip), vehicle: saline",101 % of control
same,T/C,"dose: 30.0 mg/kg/injection, schedule: Q04DX003 (ip), vehicle: saline",98 % of control
same,T/C,"dose: 60.0 mg/kg/injection, schedule: Q04DX003 (ip), vehicle: saline",86 % of control
CCCC#CC(O)(C(=O)OC)c1ccccc1 (centres undefined),T/C,[4],102 % of control
same,T/C,[5],103 % of control
same,T/C,[6],105 % of control
O=C(O)c1c(F)ccc([N+](=O)[O-])c1F,T/C,[1],108 % of control
same,T/C,[2],103 % of control
CC(C)(C)c1ccc(C(=O)O)cc1Br,T/C,"dose: 50.0 mg/kg/injection, schedule: Q04DX003 (ip), vehicle: other",104 % of control
same,T/C,"dose: 100.0 mg/kg/injection, schedule: Q04DX003 (ip), vehicle: other",113 % of control
same,T/C,"dose: 200.0 mg/kg/injection, schedule: Q04DX003 (ip), vehicle: other",98 % of control
O=C(N/N=C/c1ccccn1)c1ccc(Cl)cc1,T/C,"dose: 50.0 mg/kg/injection, schedule: Q01DX009 (ip), vehicle: saline with Tween-80",104 % of control
same,T/C,[15],86 % of control
same,T/C,[16],107 % of control
